Measured values: PubChem BioAssay AID1963829 (Molecular Pharmacology Branch, DTP, NCI, 2024)

Tested on: 935938-334-R-J1-PDC complex spheroid viability
Assay: Anticancer human tumor 935938-334-R-J1-PDC patient-derived small intestine adenocarcinoma cell line growth inhibition [POLQ]
Details: for IC50: curve of first compound; for viability, T/C: stronger effect = lower value
Summary of the method: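 Complex spheroid viability model combining PDC tumour cells with endothelial (HUVEC) and MSC stromal cells. Novobiocin, ART-558 or RP6685 were tested singly and in combination with standard and investigational anticancer drugs. Each was titrated in half-log steps from near clinical Cmax, or from 10 microM where Cmax was unknown.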

[1] = second compound 0.0316 µM, first compound 0.0316 µM
[2] = second compound 0.0316 µM, first compound 0.1 µM
[3] = second compound 0.0316 µM, first compound 0.316 µM
[4] = second compound 0.0316 µM, first compound 1 µM
[5] = second compound 0.1 µM, first compound 0.0316 µM
[6] = second compound 0.1 µM, first compound 0.1 µM
[7] = second compound 0.1 µM, first compound 0.316 µM
[8] = second compound 0.1 µM, first compound 1 µM
[9] = second compound 0.316 µM, first compound 0.0316 µM
[10] = second compound 0.316 µM, first compound 0.1 µM
[11] = second compound 0.316 µM, first compound 0.316 µM
[12] = second compound 0.316 µM, first compound 1 µM
[13] = second compound 1 µM, first compound 0.0316 µM
[14] = second compound 1 µM, first compound 0.1 µM
[15] = second compound 1 µM, first compound 0.316 µM
[16] = second compound 1 µM, first compound 1 µM
[17] = second compound 3.16 µM, first compound 0.0316 µM
[18] = second compound 3.16 µM, first compound 0.1 µM
[19] = second compound 3.16 µM, first compound 0.316 µM
[20] = second compound 3.16 µM, first compound 1 µM
[21] = second compound 10 µM, first compound 0.0316 µM
[22] = second compound 10 µM, first compound 0.1 µM
[23] = second compound 10 µM, first compound 0.316 µM
[24] = second compound 10 µM, first compound 1 µM
[25] = second compound 0.0316 µM, first compound 3.16 µM
[26] = second compound 0.0316 µM, first compound 10 µM
[27] = second compound 0.1 µM, first compound 3.16 µM
[28] = second compound 0.1 µM, first compound 10 µM
[29] = second compound 0.316 µM, first compound 3.16 µM
[30] = second compound 0.316 µM, first compound 10 µM
[31] = second compound 1 µM, first compound 3.16 µM
[32] = second compound 1 µM, first compound 10 µM
[33] = second compound 3.16 µM, first compound 3.16 µM
[34] = second compound 3.16 µM, first compound 10 µM
[35] = second compound 10 µM, first compound 3.16 µM
[36] = second compound 10 µM, first compound 10 µM
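Note: spheroids exposed to drugs for seven days before viability read.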
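Throughout, for viability, T/C: 100% = DMSO vehicle control wells.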

For `COc1cccc(OCCCN)c1-c1cc(Nc2cnc(C#N)cn2)n[nH]1` + COC1C(OC(N)=O)C(O)C(Oc2ccc3c(O)c(NC(=O)c4ccc(O)c(CC=C(C)C)c4)c(=O)oc3c2C)OC1(C)C, the IC50 (second compound 0.0316 µM) was 49.6 nM, the IC50 (second compound 0.1 µM) was 38.7 nM and the IC50 (second compound 0.316 µM) was 47.9 nM. The IC50 (second compound 1 µM) was 36.9 nM, the IC50 (second compound 3.16 µM) was 36.9 nM and the IC50 (second compound 10 µM) was 27.8 nM. The viability, T/C (second compound 0.0316 µM, first compound 0.00316 µM) was 90.2%, the viability, T/C (second compound 0.0316 µM, first compound 0.01 µM) was 88.9% and the viability, T/C [1] was 65.2%. The viability, T/C [2] was 25.8%, the viability, T/C [3] was 12.1% and the viability, T/C [4] was 9.12%. For the same compound, the viability, T/C (second compound 0.1 µM, first compound 0.00316 µM) was 100%, the viability, T/C (second compound 0.1 µM, first compound 0.01 µM) was 89.1% and the viability, T/C [5] was 54.5%. The viability, T/C [6] was 25.4%, the viability, T/C [7] was 12.5% and the viability, T/C [8] was 9.92%. It also gave a viability, T/C (second compound 0.316 µM, first compound 0.00316 µM) of 89.2%, a viability, T/C (second compound 0.316 µM, first compound 0.01 µM) of 79.7% and a viability, T/C [9] of 64.2%. The viability, T/C [10] was 26.6%, the viability, T/C [11] was 10.6% and the viability, T/C [12] was 9.51%. For the same compound, the viability, T/C (second compound 1 µM, first compound 0.00316 µM) was 113%, the viability, T/C (second compound 1 µM, first compound 0.01 µM) was 85.1% and the viability, T/C [13] was 57.5%. For the same compound, the viability, T/C [14] was 23.7%, the viability, T/C [15] was 11.1% and the viability, T/C [16] was 8.98%. It also gave a viability, T/C (second compound 3.16 µM, first compound 0.00316 µM) of 80.7%, a viability, T/C (second compound 3.16 µM, first compound 0.01 µM) of 89.8% and a viability, T/C [17] of 52%. It also gave a viability, T/C [18] of 22.3%, a viability, T/C [19] of 11.1% and a viability, T/C [20] of 9%. It also gave a viability, T/C (second compound 10 µM, first compound 0.00316 µM) of 84.4%, a viability, T/C (second compound 10 µM, first compound 0.01 µM) of 91.6% and a viability, T/C [21] of 45.3%. The viability, T/C [22] was 15.4%, the viability, T/C [23] was 11.8% and the viability, T/C [24] was 8.31%.

For `COc1cccc2c1C(=O)c1c(O)c3c(c(O)c1C2=O)CC(O)(C(=O)CO)CC3OC1CC(N)C(O)C(C)O1` (stereo not drawn) + Nc1ccc(C#CCN(C(=O)Cc2ncc(C(F)(F)F)cc2C(F)(F)F)c2ccc(F)cc2)nn1, the IC50 (second compound 0.0316 µM) was 70.9 nM, the IC50 (second compound 0.1 µM) was 86.4 nM and the IC50 (second compound 0.316 µM) was less than 31.6 nM. It also gave an IC50 (second compound 1 µM) of 54.6 nM, an IC50 (second compound 3.16 µM) of 35.3 nM and an IC50 (second compound 10 µM) of 78.1 nM. The viability, T/C [1] was 67.3%, the viability, T/C [2] was 39.4% and the viability, T/C [3] was 27.4%. For the same compound, the viability, T/C [4] was 22.2%, the viability, T/C [25] was 8.04% and the viability, T/C [26] was 3.61%. It also gave a viability, T/C [5] of 69.9%, a viability, T/C [6] of 45.5% and a viability, T/C [7] of 31.3%. For the same compound, the viability, T/C [8] was 19.6%, the viability, T/C [27] was 7.02% and the viability, T/C [28] was 3.54%. It also gave a viability, T/C [9] of 49.8%, a viability, T/C [10] of 32.1% and a viability, T/C [11] of 30.9%. The viability, T/C [12] was 23.7%, the viability, T/C [29] was 8.73% and the viability, T/C [30] was 3.32%. It also gave a viability, T/C [13] of 58.9%, a viability, T/C [14] of 38.8% and a viability, T/C [15] of 30.3%. The viability, T/C [16] was 18.8%, the viability, T/C [31] was 9.11% and the viability, T/C [32] was 4.86%. It also gave a viability, T/C [17] of 52.6%, a viability, T/C [18] of 35.4% and a viability, T/C [19] of 27.9%. The viability, T/C [20] was 20.3%, the viability, T/C [33] was 5.88% and the viability, T/C [34] was 5.57%. The viability, T/C [21] was 68.1%, the viability, T/C [22] was 38.4% and the viability, T/C [23] was 38%. For the same compound, the viability, T/C [24] was 18.9%, the viability, T/C [35] was 5.97% and the viability, T/C [36] was 6.61%.

Compound `C#Cc1c(F)ccc2cc(O)cc(-c3ncc4c(N5CC6CCC(C5)N6)nc(OCC56CCCN5CC(F)C6)nc4c3F)c12` (stereo not drawn) + Cc1cccc(N(C)C(=O)C2C(O)CCN2c2nc(C)cc(C(F)(F)F)c2C#N)c1 has an IC50 (second compound 0.0316 µM) of 2410 nM, an IC50 (second compound 0.1 µM) of 3390 nM and an IC50 (second compound 0.316 µM) of 1490 nM. The IC50 (second compound 1 µM) was 1730 nM, the IC50 (second compound 3.16 µM) was 2020 nM and the IC50 (second compound 10 µM) was 576 nM. It also gave a viability, T/C [1] of 89.8%, a viability, T/C [2] of 97.8% and a viability, T/C [3] of 65.1%. For the same compound, the viability, T/C [4] was 75.2%, the viability, T/C [25] was 40.2% and the viability, T/C [26] was 29.7%. The viability, T/C [5] was 80.3%, the viability, T/C [6] was 75.2% and the viability, T/C [7] was 62%. The viability, T/C [8] was 60.9%, the viability, T/C [27] was 53.4% and the viability, T/C [28] was 39.4%. For the same compound, the viability, T/C [9] was 97.5%, the viability, T/C [10] was 88.9% and the viability, T/C [11] was 87.6%. It also gave a viability, T/C [12] of 54.6%, a viability, T/C [29] of 41.9% and a viability, T/C [30] of 33.4%. For the same compound, the viability, T/C [13] was 92%, the viability, T/C [14] was 75% and the viability, T/C [15] was 64.3%. It also gave a viability, T/C [16] of 64.8%, a viability, T/C [31] of 36.5% and a viability, T/C [32] of 35.5%. It also gave a viability, T/C [17] of 72.5%, a viability, T/C [18] of 81.1% and a viability, T/C [19] of 54.4%. The viability, T/C [20] was 70.7%, the viability, T/C [33] was 37.3% and the viability, T/C [34] was 31.8%. The viability, T/C [21] was 85.4%, the viability, T/C [22] was 73.7% and the viability, T/C [23] was 61.5%. For the same compound, the viability, T/C [24] was 38.6%, the viability, T/C [35] was 36.6% and the viability, T/C [36] was 29.6%.

Work on `COc1cccc2c1C(=O)c1c(O)c3c(c(O)c1C2=O)CC(O)(C(=O)CO)CC3OC1CC(N)C(O)C(C)O1` (stereo not drawn) + COC1C(OC(N)=O)C(O)C(Oc2ccc3c(O)c(NC(=O)c4ccc(O)c(CC=C(C)C)c4)c(=O)oc3c2C)OC1(C)C yielded an IC50 (second compound 0.0316 µM) of 217 nM, an IC50 (second compound 0.1 µM) of 221 nM and an IC50 (second compound 0.316 µM) of 190 nM. For the same compound, the IC50 (second compound 1 µM) was 228 nM, the IC50 (second compound 3.16 µM) was 211 nM and the IC50 (second compound 10 µM) was 216 nM. For the same compound, the viability, T/C [1] was 84.4%, the viability, T/C [2] was 93.7% and the viability, T/C [3] was 30.8%. The viability, T/C [4] was 19.2%, the viability, T/C [25] was 5.61% and the viability, T/C [26] was 7.78%. For the same compound, the viability, T/C [5] was 75.3%, the viability, T/C [6] was 98.3% and the viability, T/C [7] was 33.4%. The viability, T/C [8] was 20.2%, the viability, T/C [27] was 4.7% and the viability, T/C [28] was 4.37%. For the same compound, the viability, T/C [9] was 67.5%, the viability, T/C [10] was 93.3% and the viability, T/C [11] was 25.9%. The viability, T/C [12] was 20.4%, the viability, T/C [29] was 6.24% and the viability, T/C [30] was 5.64%. For the same compound, the viability, T/C [13] was 66.8%, the viability, T/C [14] was 103% and the viability, T/C [15] was 36%. The viability, T/C [16] was 23.7%, the viability, T/C [31] was 6.64% and the viability, T/C [32] was 5.44%. For the same compound, the viability, T/C [17] was 52.7%, the viability, T/C [18] was 113% and the viability, T/C [19] was 32.1%. For the same compound, the viability, T/C [20] was 22.1%, the viability, T/C [33] was 6.52% and the viability, T/C [34] was 3.3%. It also gave a viability, T/C [21] of 61.5%, a viability, T/C [22] of 122% and a viability, T/C [23] of 29%. It also gave a viability, T/C [24] of 21.3%, a viability, T/C [35] of 5.32% and a viability, T/C [36] of 5.87%.
